Reference: patent US20230146455A1, “TREATMENT OF INFLAMMATORY DISEASES WITH PEPTIDES AND PHARMACEUTICAL COMPOSITIONS” (Yuyu Pharma, Inc., priority 2020, published 2023)
Values joined by “and” are separate entries in the source; they are usually repeats but may differ in a detail not shown here. Identical values can stand only once. Where a SMILES comes first, the peptide text is derived from it. [ ]: non-standard residue; d: D form. Hyp = O=C(O)[C@@H]1C[C@@H](O)CN1

System: IL-17A
Assay: Example 9 Luminex, LPS hPBMCs: IL-17A
Type: cell-based, human
Method: Treatment Human PBMCs were pretreated with YY-101, YDE-011 and YDE-043 or reference compound; Xiidra® at various concentration (ranging from 1 nM to 100 uM) for 2 h before stimulation. An equal volume of 0.5% DMSO was used as a vehicle control. Then, the cells were treated with LPS at 5 ug/ml. The supernatants from treated cells were harvested at 24 h and placed in a 96 well for Luminex cytokine & chemokine profiling using a Luminex 200 multiplex assay (Luminex; R&D system, USA).
The main study arm with triplicate wells per group in a 24-well plate: • 1. Blank • 2. PBMC: 0.5% DMSO • 3. PBMC+LPS (5 ug/ml) • 4. PBMC+YY-101 100 uM • 5. PBMC+YY-101 10 uM • 6. PBMC+YY-101 1 uM • 7. PBMC+YY-101 0.1 uM • 8. PBMC+YY-101 0.01 uM • 9. PBMC+LPS (5 ug/ml)+Xiidra®100 uM • 10. PBMC+LPS (5 ug/ml)+Xiidra® 10 uM • 11. PBMC+LPS (5 ug/ml)+Xiidra® 1 uM • 12. PBMC+LPS (5 ug/ml)+Xiidra®0.1 uM • 13. PBMC+LPS (5 ug/ml)+Xiidra®0.01 uM • 14. PBMC+LPS (5 ug/ml)+Xiidra®0.001 uM • 15. PBMC+LPS (5 ug/ml)+YY-101 100 uM • 16. PBMC+LPS (5 ug/ml)+YY-101 10 uM • 17. PBMC+LPS (5 ug/ml)+YY-101 1 uM • 18. PBMC+LPS (5 ug/ml)+YY-101 0.1 uM • 19. PBMC+LPS (5 ug/ml)+YY-101 0.01 uM • 20. PBMC+LPS (5 ug/ml)+YY-101 0.001 uM • 21. PBMC+LPS (5 ug/ml)+YDE-011 100 uM • 22. PBMC+LPS (5 ug/ml)+YDE-011 10 uM • 23. PBMC+LPS (5 ug/ml)+YDE-011 1 uM • 24. PBMC+LPS (5 ug/ml)+YDE-011 0.1 uM • 25. PBMC+LPS (5 ug/ml)+YDE-011 0.01 uM • 26. PBMC+LPS (5 ug/ml)+YDE-011 0.001 uM • 27. PBMC+LPS (5 ug/ml)+YDE-043 100 uM • 28. PBMC+LPS (5 ug/ml)+YDE-043 10 uM • 29. PBMC+LPS (5 ug/ml)+YDE-043 1 uM • 30. PBMC+LPS (5 ug/ml)+YDE-043 0.1 uM • 31. PBMC+LPS (5 ug/ml)+YDE-043 0.01 uM • 32. PBMC+LPS (5 ug/ml)+YDE-043 0.001 uM
Multiplex assay was used to measure 30 cytokines and chemokines. The 1:2, 1:10 and 1:200 diluted cell supernatant and serial dilution of the standard were dispensed into a 96 well plate at 50 ul/well. Then, the pre-mixed cocktail of antibody-coated magnetic beads was dispensed at 50 ul/well and incubated at room temperature for 2 h in a horizontal orbital microplate shaker at 800±500 rpm. The beads were washed using a magnetic device to prevent loss. The biotin-antibody was dispensed in 50 ul of each well and incubated at room temperature for 1 h in a shaker at 800±500 rpm. After washing, streptavidin-PE was added at 50 ul/well and incubated at room temperature for 30 min in a shaker under the same conditions. Finally, after washing, wash buffer (100 ul/well) was added to the plate and incubated in a shaker for 2 min. The Luminex™ 200 setting were set according to the manufacturer's protocol. The data was calculated with a standard five-parameter logistic nonlinear regression analysis of the data (xPonent software 4.2, USA). The levels of cytokine/chemokine are normalized to the live cell counts (1×10^5 cells/mL) and presented as concentrations per mL (pg/mL or ng/mL).

[1] = PBMC + LPS(5 ug/ml) + test article 0.01 uM, single replicates (1st, 2nd, 3rd)
[2] = PBMC + LPS(5 ug/ml) + test article 0.1 uM, Mean
[3] = PBMC + LPS(5 ug/ml) + test article 0.1 uM, single replicates (1st, 2nd, 3rd)
[4] = PBMC + LPS(5 ug/ml) + test article 1 uM, Mean
[5] = PBMC + LPS(5 ug/ml) + test article 1 uM, single replicates (1st, 2nd, 3rd)
[6] = PBMC + LPS(5 ug/ml) + test article 10 uM, Mean
[7] = PBMC + LPS(5 ug/ml) + test article 10 uM, single replicates (1st, 2nd, 3rd)
[8] = PBMC + LPS(5 ug/ml) + test article 100 uM, Mean
[9] = PBMC + LPS(5 ug/ml) + test article 100 uM, single replicates (1st, 2nd, 3rd)
[10] = PBMC without LPS + test article 0.01 uM, Mean
[11] = PBMC without LPS + test article 0.01 uM, single replicates (1st, 2nd)
[12] = PBMC without LPS + test article 0.1 uM, Mean
[13] = PBMC without LPS + test article 0.1 uM, single replicates (1st, 2nd)
[14] = PBMC without LPS + test article 1 uM, Mean
[15] = PBMC without LPS + test article 1 uM, single replicates (1st, 2nd)
[16] = PBMC without LPS + test article 10 uM, Mean
[17] = PBMC without LPS + test article 10 uM, single replicates (1st, 2nd)
[18] = PBMC without LPS + test article 100 uM, Mean
[19] = PBMC without LPS + test article 100 uM, single replicates (1st, 2nd)

## CC(C)C[C@H](NC(=O)CNC(=O)[C@H](CC(=O)O)NC(=O)[C@H](CCC(N)=O)NC(=O)CNC(=O)[C@@H]1C[C@@H](O)CN1)C(=O)N[C@@H](C)C(=O)NCC(=O)N1CCC[C@H]1C(=O)N[C@@H](CCCCN)C(=O)O [YY-101] (H-[Hyp]GQDGLAGPK-OH; N-terminus and C-terminus assumed)
[1]
  MFI, Bead name: IL-17A: 3.5 (2×) and 1.5
  conc/live cell, IL-17A: 0.9 pg/10^5 and 1.0 pg/10^5 and 0.4 pg/10^5
[2]
  Concentration, IL-17A: 4.3 pg/mL
  MFI, Bead name: IL-17A: 2.5
  conc/live cell, IL-17A: 0.7 pg/10^5
[3]
  Concentration, IL-17A: 6.0 pg/ml (2×) and 1.0 pg/ml
  MFI, Bead name: IL-17A: 3.5 (2×) and 0.5
  conc/live cell, IL-17A: 1.0 pg/10^5 (2×) and 0.2 pg/10^5
[4]
  Concentration, IL-17A: 5.4 pg/mL
  MFI, Bead name: IL-17A: 3.2
  conc/live cell, IL-17A: 0.8 pg/10^5
[5]
  Concentration, IL-17A: 4.3 pg/ml (2×) and 7.5 pg/ml
  MFI, Bead name: IL-17A: 2.5 (2×) and 4.5
  conc/live cell, IL-17A: 0.7 pg/10^5 and 0.6 pg/10^5 and 1.2 pg/10^5
[6]
  Concentration, IL-17A: 3.3 pg/mL
  MFI, Bead name: IL-17A: 1.8
  conc/live cell, IL-17A: 0.5 pg/10^5
[7]
  Concentration, IL-17A: 4.3 pg/ml and 2.7 pg/ml (2×)
  MFI, Bead name: IL-17A: 2.5 and 1.5 (2×)
  conc/live cell, IL-17A: 0.7 pg/10^5 and 0.4 pg/10^5 (2×)
[8]
  Concentration, IL-17A: 1.6 pg/mL
  MFI, Bead name: IL-17A: 0.8
  conc/live cell, IL-17A: 0.3 pg/10^5
[9]
  Concentration, IL-17A: 1.0 pg/ml (2×) and 2.7 pg/ml
  MFI, Bead name: IL-17A: 0.5 (2×) and 1.5
  conc/live cell, IL-17A: 0.2 pg/10^5 (2×) and 0.4 pg/10^5
[10]
  Concentration, IL-17A: 7.5 pg/mL
  MFI, Bead name: IL-17A: 4.5
  conc/live cell, IL-17A: 1.5 pg/10^5
[11]
  Concentration, IL-17A: 7.5 pg/mL
  MFI, Bead name: IL-17A: 4.5
  conc/live cell, IL-17A: 1.5 pg/10^5 and 1.6 pg/10^5
[12]
  Concentration, IL-17A: 8.3 pg/mL
  MFI, Bead name: IL-17A: 5.0
  conc/live cell, IL-17A: 1.5 pg/10^5
[13]
  Concentration, IL-17A: 4.3 pg/mL and 12.2 pg/mL
  MFI, Bead name: IL-17A: 2.5 and 7.5
  conc/live cell, IL-17A: 1.0 pg/10^5 and 2.1 pg/10^5
[14]
  Concentration, IL-17A: 5.2 pg/mL
  MFI, Bead name: IL-17A: 3.0
  conc/live cell, IL-17A: 0.9 pg/10^5
[15]
  Concentration, IL-17A: 6.0 pg/mL and 4.3 pg/mL
  MFI, Bead name: IL-17A: 3.5 and 2.5
  conc/live cell, IL-17A: 1.1 pg/10^5 and 0.8 pg/10^5
[16]
  Concentration, IL-17A: 18.3 pg/mL
  MFI, Bead name: IL-17A: 11.5
  conc/live cell, IL-17A: 2.9 pg/10^5
[17]
  Concentration, IL-17A: 22.9 pg/mL and 13.8 pg/mL
  MFI, Bead name: IL-17A: 14.5 and 8.5
  conc/live cell, IL-17A: 3.6 pg/10^5 and 2.3 pg/10^5
[18]
  Concentration, IL-17A: 3.5 pg/mL
  MFI, Bead name: IL-17A: 2.0
  conc/live cell, IL-17A: 0.5 pg/10^5
[19]
  Concentration, IL-17A: 2.7 pg/mL and 4.3 pg/mL
  MFI, Bead name: IL-17A: 1.5 and 2.5
  conc/live cell, IL-17A: 0.4 pg/10^5 and 0.6 pg/10^5
